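Assay format: 96-well plates, 48-hour exposure. Here, GI50 denotes the concentration required for 50% inhibition of growth.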 Activity calls are given as the source filed them. No stated cut-off is given here; in the data, active = GI50 up to about 1.1 µM and inactive = higher.
Key:
Experiment in all cases: growth of human tumour cells (NCI), 48 h
[1] = system: TK-10
[2] = system: T47D
[3] = system: SN12C
[4] = system: MDA-MB-231
[5] = system: OVCAR-5
[6] = system: EKVX
[7] = system: SR
[8] = system: HOP-62
[9] = system: LOX IMVI
[10] = system: IGROV-1
[11] = system: NCI/ADR-RES
[12] = system: Hs-578T
[13] = system: COLO 205
[14] = system: SF-268
[15] = system: SK-OV-3
[16] = system: CCRF-CEM
[17] = system: HCT-116
[18] = system: SF-539
[19] = system: RXF 393
[20] = system: M14

SMILES | GI50 [1] | GI50 [2] | GI50 [3] | GI50 [4] | GI50 [5] | GI50 [6] | GI50 [7] | GI50 [8] | GI50 [9] | GI50 [10] | GI50 [11] | GI50 [12] | GI50 [13] | GI50 [14] | GI50 [15] | GI50 [16] | GI50 [17] | GI50 [18] | GI50 [19] | GI50 [20]
CCc1n[nH]c(=O)n1CC | > 100 µM (inactive) | > 100 µM (inactive) | > 100 µM (inactive) | > 100 µM (inactive) | > 100 µM (inactive) | > 100 µM (inactive) | > 100 µM (inactive) | > 100 µM (inactive) | > 100 µM (inactive) | > 100 µM (inactive) | > 100 µM (inactive) | > 100 µM (inactive) | > 100 µM (inactive) | > 100 µM (inactive) | > 100 µM (inactive) | > 100 µM (inactive) | > 100 µM (inactive) | > 100 µM (inactive) | – | –
CC(=O)O[C@@H]1CC[C@@]2(C)C(CC[C@H]3[C@@H]4CC[C@H]([C@H](C)CCc5nc6cc(C)ccc6[nH]5)[C@@]4(C)CC[C@@H]32)C1 (stereo not given in full) | > 100 µM (inactive) | 0.0352 µM (active) | 41.5 µM (inactive) | 18 µM (inactive) | > 100 µM (inactive) | 9.64 µM (inactive) | – | 13.1 µM (inactive) | 1.66 µM (inactive) | 4.34 µM (inactive) | 97.3 µM (inactive) | 13.9 µM (inactive) | 24.4 µM (inactive) | > 100 µM (inactive) | > 100 µM (inactive) | 3.44 µM (inactive) | > 100 µM (inactive) | > 100 µM (inactive) | 6.81 µM (inactive) | 16.1 µM (inactive)
Cc1cc2c(cc1Cl)SC(NNc1cnc3ccccc3n1)=NS2(=O)=O | > 100 µM (inactive) | 55.1 µM (inactive) | 88.3 µM (inactive) | 61 µM (inactive) | > 100 µM (inactive) | > 100 µM (inactive) | – | 41.7 µM (inactive) | 46 µM (inactive) | 41.8 µM (inactive) | > 100 µM (inactive) | 51.9 µM (inactive) | 49.7 µM (inactive) | 32.3 µM (inactive) | 44.2 µM (inactive) | 46.8 µM (inactive) | 48.1 µM (inactive) | 29.4 µM (inactive) | 40.3 µM (inactive) | 74.1 µM (inactive)
CN(C)CCNc1ccc(NCC[N+](C)(C)Cc2ccc([N+](=O)[O-])cc2)c2c1C(=O)c1c(O)ccc(O)c1C2=O | – | 36.3 µM (inactive) | 12.2 µM (inactive) | 43.2 µM (inactive) | – | > 100 µM (inactive) | – | 79.3 µM (inactive) | 25.5 µM (inactive) | 40.3 µM (inactive) | > 100 µM (inactive) | 28.9 µM (inactive) | 27.6 µM (inactive) | 19.8 µM (inactive) | – | 11.5 µM (inactive) | 15.8 µM (inactive) | – | – | –
CCOC(=O)/C(C#N)=N\Nc1ccc(-n2c(C)nc3ccc(Br)cc3c2=O)cc1 | > 100 µM (inactive) | 34.2 µM (inactive) | 63.8 µM (inactive) | > 100 µM (inactive) | > 100 µM (inactive) | 87.1 µM (inactive) | 19.7 µM (inactive) | 91.6 µM (inactive) | 36.1 µM (inactive) | 41.9 µM (inactive) | 62.4 µM (inactive) | 51.3 µM (inactive) | 58.3 µM (inactive) | 68.5 µM (inactive) | > 100 µM (inactive) | 33.2 µM (inactive) | 42.2 µM (inactive) | 87.9 µM (inactive) | – | 69.5 µM (inactive)
O=C(O)c1cccc(Nc2c(C(=O)O)cccc2[N+](=O)[O-])c1 | > 100 µM (inactive) | > 100 µM (inactive) | > 100 µM (inactive) | > 100 µM (inactive) | > 100 µM (inactive) | > 100 µM (inactive) | > 100 µM (inactive) | > 100 µM (inactive) | > 100 µM (inactive) | > 100 µM (inactive) | > 100 µM (inactive) | > 100 µM (inactive) | > 100 µM (inactive) | – | > 100 µM (inactive) | > 100 µM (inactive) | > 100 µM (inactive) | > 100 µM (inactive) | – | > 100 µM (inactive)
CC(C)OC1=C(CC2(C)OCCO2)C(=O)C12OCCO2 | > 100 µM (inactive) | > 100 µM (inactive) | > 100 µM (inactive) | > 100 µM (inactive) | > 100 µM (inactive) | > 100 µM (inactive) | – | > 100 µM (inactive) | > 100 µM (inactive) | > 100 µM (inactive) | > 100 µM (inactive) | > 100 µM (inactive) | > 100 µM (inactive) | > 100 µM (inactive) | > 100 µM (inactive) | > 100 µM (inactive) | > 100 µM (inactive) | > 100 µM (inactive) | – | > 100 µM (inactive)
CN(C)c1ccc(C2SCC(=O)N2c2ccc(Oc3ccc(Cl)cc3)c(Cl)c2)cc1 (stereo not given) | 48.4 µM (inactive) | 15.3 µM (inactive) | 23.3 µM (inactive) | 20.4 µM (inactive) | 26.4 µM (inactive) | 22.8 µM (inactive) | 27.5 µM (inactive) | 20.5 µM (inactive) | 18.7 µM (inactive) | 22.6 µM (inactive) | 22.3 µM (inactive) | 14.4 µM (inactive) | 20.6 µM (inactive) | 13.8 µM (inactive) | 29 µM (inactive) | 18.5 µM (inactive) | 16.7 µM (inactive) | 18.1 µM (inactive) | – | 28.8 µM (inactive)
O=C1CCC2C(O)c3cc4c(cc3C(c3ccc5c(c3)OCO5)N12)OCO4 (stereo not given) | > 100 µM (inactive) | > 100 µM (inactive) | 76 µM (inactive) | > 100 µM (inactive) | > 100 µM (inactive) | > 100 µM (inactive) | > 100 µM (inactive) | 25 µM (inactive) | > 100 µM (inactive) | > 100 µM (inactive) | 94 µM (inactive) | 24.4 µM (inactive) | > 100 µM (inactive) | 19.2 µM (inactive) | 40 µM (inactive) | > 100 µM (inactive) | > 100 µM (inactive) | 80 µM (inactive) | – | > 100 µM (inactive)
Cc1ccc2c(=O)c(C(=O)N(CCO)CCO)c[nH]c2n1 | > 100 µM (inactive) | > 100 µM (inactive) | > 100 µM (inactive) | > 100 µM (inactive) | > 100 µM (inactive) | > 100 µM (inactive) | – | > 100 µM (inactive) | > 100 µM (inactive) | > 100 µM (inactive) | > 100 µM (inactive) | > 100 µM (inactive) | > 100 µM (inactive) | > 100 µM (inactive) | – | > 100 µM (inactive) | > 100 µM (inactive) | – | > 100 µM (inactive) | > 100 µM (inactive)
CSc1ccc(/C=C2\N=C(c3ccccc3)N(c3nc4ccc(Sc5ccccc5)cc4[nH]3)C2=O)cc1 | 16.9 µM (inactive) | 20.5 µM (inactive) | 21.7 µM (inactive) | 18.3 µM (inactive) | 26.2 µM (inactive) | 31 µM (inactive) | – | 17.2 µM (inactive) | 17.6 µM (inactive) | 36.5 µM (inactive) | 19.4 µM (inactive) | 18.6 µM (inactive) | 13.9 µM (inactive) | 27.6 µM (inactive) | 14.7 µM (inactive) | 27.4 µM (inactive) | 14.7 µM (inactive) | – | 17.4 µM (inactive) | 15.3 µM (inactive)
CC1(C)OCC(CO)(Nc2nc(N3CC3)nc(N3CC3)n2)CO1 | 24.6 µM (inactive) | 1.49 µM (inactive) | 7.71 µM (inactive) | > 10 µM (inactive) | 20 µM (inactive) | 32 µM (inactive) | 0.483 µM (active) | 5.53 µM (inactive) | 5.52 µM (inactive) | 20.6 µM (inactive) | – | 19 µM (inactive) | 20.3 µM (inactive) | 4.07 µM (inactive) | 5.78 µM (inactive) | 1.16 µM (inactive) | 1.85 µM (inactive) | 4.18 µM (inactive) | 13.2 µM (inactive) | 9.2 µM (inactive)
Cc1nc(/C(=N\n2cnnc2)Nc2ccc(Br)cc2)no1 | – | > 100 µM (inactive) | – | > 100 µM (inactive) | > 100 µM (inactive) | > 100 µM (inactive) | – | > 100 µM (inactive) | – | > 100 µM (inactive) | > 100 µM (inactive) | > 100 µM (inactive) | > 100 µM (inactive) | – | > 100 µM (inactive) | > 100 µM (inactive) | > 100 µM (inactive) | – | > 100 µM (inactive) | > 100 µM (inactive)
COc1cccc(-c2c(C#N)c(N)nc3c2CCS(=O)(=O)c2ccc(C)cc2-3)c1 | > 100 µM (inactive) | > 100 µM (inactive) | > 100 µM (inactive) | > 100 µM (inactive) | > 100 µM (inactive) | – | 40.6 µM (inactive) | > 100 µM (inactive) | > 100 µM (inactive) | > 100 µM (inactive) | > 100 µM (inactive) | > 100 µM (inactive) | > 100 µM (inactive) | > 100 µM (inactive) | – | > 100 µM (inactive) | > 100 µM (inactive) | – | – | > 100 µM (inactive)
O=C1/C(=C/C=C/c2ccccc2)N=C(c2ccccc2)N1c1ccc(S(=O)(=O)Nc2nccs2)cc1 | 30.8 µM (inactive) | 27.6 µM (inactive) | 30 µM (inactive) | – | 31.6 µM (inactive) | 26.3 µM (inactive) | 30.9 µM (inactive) | 39.3 µM (inactive) | 21.8 µM (inactive) | 20.2 µM (inactive) | > 100 µM (inactive) | 37.8 µM (inactive) | 18.8 µM (inactive) | 14 µM (inactive) | 28.1 µM (inactive) | 32.4 µM (inactive) | 29.6 µM (inactive) | 20.8 µM (inactive) | 13.2 µM (inactive) | 26.4 µM (inactive)

Reference: ChEMBL document CHEMBL1201862, “PubChem BioAssay data set” (2004)
